Columns and labels:
[1] = Sensory evaluation of yogurt containing the agent; conditions: ten panels
Procedure: (§1) Sensory evaluation of each drink was carried out by ten panels. […] The piercing aroma characteristic to aldehydes is a characteristic aroma common to every aldehyde and refers to an irritant off-smell giving an image of deteriorated oils and fats, soap, metals, Houttuynia cordata, etc. The judgment of smell was performed by comparing the effects at different concentrations of the acid taste and/or acid smell-reducing agent, and a concentration giving the highest acid taste/acid smell quality was selected.
A yogurt base material as a control was prepared by mixing 100 parts by mass of commercially available plain yogurt (milk non-fat solids: 9.5%, milk fat component: 3.0%) with 0.1 parts by mass of acetic acid (glacial acetic acid: food additive, manufactured by Junsei Chemical Co., Ltd.) with stirring. To the resulting mixture was added (Z,Z)-4,7-tridecadienal as the acid taste and/or acid smell-reducing agent of the present invention in concentrations shown in the following Table 9 to give yogurt containing the agent, followed by sensory evaluation as in Example 1.

[2] = Sensory evaluation of orange juice containing the agent; conditions: ten panels
Procedure: as §1
To commercially available 100% orange juice was added (Z,Z)-4,7-tridecadienal as the acid taste and/or acid smell-reducing agent of the present invention in concentrations shown in the following Table 12 to give orange juice containing the agent, followed by sensory evaluation as in Example 1.

## CCCCC/C=C\C/C=C\CCC=O [(Z,Z)-4,7-tridecadienal]
[1]; 0.005 ppt
  A: number of panels, acid taste/acid smell extreme and cause irritation: 10
  B: number of panels, acid taste/acid smell slightly strong and slightly cause irritation: 0
  C: number of panels, acid taste/acid smell slightly unpleasant: 0
  Flavor judgment: number of panels who judged acid taste/acid smell quality the highest: 0
  N: number of panels, irritation of acid reduced to give a mild acid taste: 0
  X: number of panels, acid taste reduced but piercing odor characteristic to aldehydes unpleasant: 0
[1]; 0.02 ppt
  A: number of panels, acid taste/acid smell extreme and cause irritation: 8
  B: number of panels, acid taste/acid smell slightly strong and slightly cause irritation: 2
  C: number of panels, acid taste/acid smell slightly unpleasant: 0
  Flavor judgment: number of panels who judged acid taste/acid smell quality the highest: 0
  N: number of panels, irritation of acid reduced to give a mild acid taste: 0
  X: number of panels, acid taste reduced but piercing odor characteristic to aldehydes unpleasant: 0
[1]; 0.1 ppt
  A: number of panels, acid taste/acid smell extreme and cause irritation: 5
  B: number of panels, acid taste/acid smell slightly strong and slightly cause irritation: 3
  C: number of panels, acid taste/acid smell slightly unpleasant: 2
  Flavor judgment: number of panels who judged acid taste/acid smell quality the highest: 0
  N: number of panels, irritation of acid reduced to give a mild acid taste: 0
  X: number of panels, acid taste reduced but piercing odor characteristic to aldehydes unpleasant: 0
[1]; 0.2 ppt
  A: number of panels, acid taste/acid smell extreme and cause irritation: 4
  B: number of panels, acid taste/acid smell slightly strong and slightly cause irritation: 3
  C: number of panels, acid taste/acid smell slightly unpleasant: 3
  Flavor judgment: number of panels who judged acid taste/acid smell quality the highest: 0
  N: number of panels, irritation of acid reduced to give a mild acid taste: 0
  X: number of panels, acid taste reduced but piercing odor characteristic to aldehydes unpleasant: 0
[1]; 0.5 ppt
  A: number of panels, acid taste/acid smell extreme and cause irritation: 1
  B: number of panels, acid taste/acid smell slightly strong and slightly cause irritation: 1
  C: number of panels, acid taste/acid smell slightly unpleasant: 2
  Flavor judgment: number of panels who judged acid taste/acid smell quality the highest: 1
  N: number of panels, irritation of acid reduced to give a mild acid taste: 6
  X: number of panels, acid taste reduced but piercing odor characteristic to aldehydes unpleasant: 0
[1]; 1 ppb
  A: number of panels, acid taste/acid smell extreme and cause irritation: 0
  B: number of panels, acid taste/acid smell slightly strong and slightly cause irritation: 0
  C: number of panels, acid taste/acid smell slightly unpleasant: 3
  Flavor judgment: number of panels who judged acid taste/acid smell quality the highest: 0
  N: number of panels, irritation of acid reduced to give a mild acid taste: 3
  X: number of panels, acid taste reduced but piercing odor characteristic to aldehydes unpleasant: 4
[1]; 1 ppt
  A: number of panels, acid taste/acid smell extreme and cause irritation: 0
  B: number of panels, acid taste/acid smell slightly strong and slightly cause irritation: 1
  C: number of panels, acid taste/acid smell slightly unpleasant: 3
  Flavor judgment: number of panels who judged acid taste/acid smell quality the highest: 2
  N: number of panels, irritation of acid reduced to give a mild acid taste: 6
  X: number of panels, acid taste reduced but piercing odor characteristic to aldehydes unpleasant: 0
[1]; 5 ppt
  A: number of panels, acid taste/acid smell extreme and cause irritation: 0
  B: number of panels, acid taste/acid smell slightly strong and slightly cause irritation: 0
  C: number of panels, acid taste/acid smell slightly unpleasant: 2
  Flavor judgment: number of panels who judged acid taste/acid smell quality the highest: 4
  N: number of panels, irritation of acid reduced to give a mild acid taste: 8
  X: number of panels, acid taste reduced but piercing odor characteristic to aldehydes unpleasant: 0
[1]; 10 ppb
  A: number of panels, acid taste/acid smell extreme and cause irritation: 0
  B: number of panels, acid taste/acid smell slightly strong and slightly cause irritation: 0
  C: number of panels, acid taste/acid smell slightly unpleasant: 2
  Flavor judgment: number of panels who judged acid taste/acid smell quality the highest: 0
  N: number of panels, irritation of acid reduced to give a mild acid taste: 2
  X: number of panels, acid taste reduced but piercing odor characteristic to aldehydes unpleasant: 6
[1]; 20 ppt
  A: number of panels, acid taste/acid smell extreme and cause irritation: 0
  B: number of panels, acid taste/acid smell slightly strong and slightly cause irritation: 0
  C: number of panels, acid taste/acid smell slightly unpleasant: 4
  Flavor judgment: number of panels who judged acid taste/acid smell quality the highest: 3
  N: number of panels, irritation of acid reduced to give a mild acid taste: 6
  X: number of panels, acid taste reduced but piercing odor characteristic to aldehydes unpleasant: 0
[1]; 50 ppb
  A: number of panels, acid taste/acid smell extreme and cause irritation: 0
  B: number of panels, acid taste/acid smell slightly strong and slightly cause irritation: 0
  C: number of panels, acid taste/acid smell slightly unpleasant: 1
  Flavor judgment: number of panels who judged acid taste/acid smell quality the highest: 0
  N: number of panels, irritation of acid reduced to give a mild acid taste: 1
  X: number of panels, acid taste reduced but piercing odor characteristic to aldehydes unpleasant: 8
[1]; 100 ppt
  A: number of panels, acid taste/acid smell extreme and cause irritation: 0
  B: number of panels, acid taste/acid smell slightly strong and slightly cause irritation: 1
  C: number of panels, acid taste/acid smell slightly unpleasant: 3
  Flavor judgment: number of panels who judged acid taste/acid smell quality the highest: 0
  N: number of panels, irritation of acid reduced to give a mild acid taste: 4
  X: number of panels, acid taste reduced but piercing odor characteristic to aldehydes unpleasant: 2
[1]; 500 ppt
  A: number of panels, acid taste/acid smell extreme and cause irritation: 0
  B: number of panels, acid taste/acid smell slightly strong and slightly cause irritation: 0
  C: number of panels, acid taste/acid smell slightly unpleasant: 3
  Flavor judgment: number of panels who judged acid taste/acid smell quality the highest: 0
  N: number of panels, irritation of acid reduced to give a mild acid taste: 4
  X: number of panels, acid taste reduced but piercing odor characteristic to aldehydes unpleasant: 3
[2]; 0.005 ppt
  A: number of panels, acid taste/acid smell extreme and cause irritation: 10
  B: number of panels, acid taste/acid smell slightly strong and slightly cause irritation: 0
  C: number of panels, acid taste/acid smell slightly unpleasant: 0
  Flavor judgment: number of panels who judged acid taste/acid smell quality the highest: 0
  N: number of panels, irritation of acid reduced to give a mild acid taste: 0
  X: number of panels, acid taste reduced but piercing odor characteristic to aldehydes unpleasant: 0
[2]; 0.02 ppt
  A: number of panels, acid taste/acid smell extreme and cause irritation: 9
  B: number of panels, acid taste/acid smell slightly strong and slightly cause irritation: 1
  C: number of panels, acid taste/acid smell slightly unpleasant: 0
  Flavor judgment: number of panels who judged acid taste/acid smell quality the highest: 0
  N: number of panels, irritation of acid reduced to give a mild acid taste: 0
  X: number of panels, acid taste reduced but piercing odor characteristic to aldehydes unpleasant: 0
[2]; 0.1 ppt
  A: number of panels, acid taste/acid smell extreme and cause irritation: 8
  B: number of panels, acid taste/acid smell slightly strong and slightly cause irritation: 1
  C: number of panels, acid taste/acid smell slightly unpleasant: 1
  Flavor judgment: number of panels who judged acid taste/acid smell quality the highest: 0
  N: number of panels, irritation of acid reduced to give a mild acid taste: 0
  X: number of panels, acid taste reduced but piercing odor characteristic to aldehydes unpleasant: 0
[2]; 0.2 ppt
  A: number of panels, acid taste/acid smell extreme and cause irritation: 6
  B: number of panels, acid taste/acid smell slightly strong and slightly cause irritation: 2
  C: number of panels, acid taste/acid smell slightly unpleasant: 2
  Flavor judgment: number of panels who judged acid taste/acid smell quality the highest: 0
  N: number of panels, irritation of acid reduced to give a mild acid taste: 0
  X: number of panels, acid taste reduced but piercing odor characteristic to aldehydes unpleasant: 0
[2]; 0.5 ppt
  A: number of panels, acid taste/acid smell extreme and cause irritation: 0
  B: number of panels, acid taste/acid smell slightly strong and slightly cause irritation: 2
  C: number of panels, acid taste/acid smell slightly unpleasant: 2
  Flavor judgment: number of panels who judged acid taste/acid smell quality the highest: 1
  N: number of panels, irritation of acid reduced to give a mild acid taste: 6
  X: number of panels, acid taste reduced but piercing odor characteristic to aldehydes unpleasant: 0
[2]; 1 ppb
  A: number of panels, acid taste/acid smell extreme and cause irritation: 0
  B: number of panels, acid taste/acid smell slightly strong and slightly cause irritation: 0
  C: number of panels, acid taste/acid smell slightly unpleasant: 2
  Flavor judgment: number of panels who judged acid taste/acid smell quality the highest: 0
  N: number of panels, irritation of acid reduced to give a mild acid taste: 4
  X: number of panels, acid taste reduced but piercing odor characteristic to aldehydes unpleasant: 4
[2]; 1 ppt
  A: number of panels, acid taste/acid smell extreme and cause irritation: 0
  B: number of panels, acid taste/acid smell slightly strong and slightly cause irritation: 2
  C: number of panels, acid taste/acid smell slightly unpleasant: 2
  Flavor judgment: number of panels who judged acid taste/acid smell quality the highest: 1
  N: number of panels, irritation of acid reduced to give a mild acid taste: 6
  X: number of panels, acid taste reduced but piercing odor characteristic to aldehydes unpleasant: 0
[2]; 5 ppt
  A: number of panels, acid taste/acid smell extreme and cause irritation: 0
  B: number of panels, acid taste/acid smell slightly strong and slightly cause irritation: 1
  C: number of panels, acid taste/acid smell slightly unpleasant: 2
  Flavor judgment: number of panels who judged acid taste/acid smell quality the highest: 4
  N: number of panels, irritation of acid reduced to give a mild acid taste: 7
  X: number of panels, acid taste reduced but piercing odor characteristic to aldehydes unpleasant: 0
[2]; 10 ppb
  A: number of panels, acid taste/acid smell extreme and cause irritation: 0
  B: number of panels, acid taste/acid smell slightly strong and slightly cause irritation: 0
  C: number of panels, acid taste/acid smell slightly unpleasant: 1
  Flavor judgment: number of panels who judged acid taste/acid smell quality the highest: 0
  N: number of panels, irritation of acid reduced to give a mild acid taste: 3
  X: number of panels, acid taste reduced but piercing odor characteristic to aldehydes unpleasant: 6
[2]; 20 ppt
  A: number of panels, acid taste/acid smell extreme and cause irritation: 0
  B: number of panels, acid taste/acid smell slightly strong and slightly cause irritation: 0
  C: number of panels, acid taste/acid smell slightly unpleasant: 3
  Flavor judgment: number of panels who judged acid taste/acid smell quality the highest: 4
  N: number of panels, irritation of acid reduced to give a mild acid taste: 7
  X: number of panels, acid taste reduced but piercing odor characteristic to aldehydes unpleasant: 0
[2]; 50 ppb
  A: number of panels, acid taste/acid smell extreme and cause irritation: 0
  B: number of panels, acid taste/acid smell slightly strong and slightly cause irritation: 0
  C: number of panels, acid taste/acid smell slightly unpleasant: 1
  Flavor judgment: number of panels who judged acid taste/acid smell quality the highest: 0
  N: number of panels, irritation of acid reduced to give a mild acid taste: 2
  X: number of panels, acid taste reduced but piercing odor characteristic to aldehydes unpleasant: 7
[2]; 100 ppt
  A: number of panels, acid taste/acid smell extreme and cause irritation: 0
  B: number of panels, acid taste/acid smell slightly strong and slightly cause irritation: 0
  C: number of panels, acid taste/acid smell slightly unpleasant: 4
  Flavor judgment: number of panels who judged acid taste/acid smell quality the highest: 0
  N: number of panels, irritation of acid reduced to give a mild acid taste: 4
  X: number of panels, acid taste reduced but piercing odor characteristic to aldehydes unpleasant: 2
[2]; 500 ppt
  A: number of panels, acid taste/acid smell extreme and cause irritation: 0
  B: number of panels, acid taste/acid smell slightly strong and slightly cause irritation: 0
  C: number of panels, acid taste/acid smell slightly unpleasant: 3
  Flavor judgment: number of panels who judged acid taste/acid smell quality the highest: 0
  N: number of panels, irritation of acid reduced to give a mild acid taste: 4
  X: number of panels, acid taste reduced but piercing odor characteristic to aldehydes unpleasant: 3
